ChEMBL document CHEMBL4477252, “Optimization of microtubule affinity regulating kinase (MARK) inhibitors with improved physical properties” (Bioorg Med Chem Lett, 2016)

Tests used:
[1] = molecular target: Glycogen synthase kinase-3 alpha (Homo sapiens, UniProt P49840); assay: Inhibition of full-length human GST-tagged GSK3A expressed in baculovirus expression system by Z'-LYTE assay
[2] = molecular target: Casein kinase I isoform alpha (Homo sapiens, UniProt P48729); assay: Inhibition of recombinant human GST-tagged cytoplasmic CSNK1A1 expressed in baculovirus expression system by Z'-LYTE assay
Chain of Casein kinase I isoform alpha (P48729 whole entry, canonical isoform): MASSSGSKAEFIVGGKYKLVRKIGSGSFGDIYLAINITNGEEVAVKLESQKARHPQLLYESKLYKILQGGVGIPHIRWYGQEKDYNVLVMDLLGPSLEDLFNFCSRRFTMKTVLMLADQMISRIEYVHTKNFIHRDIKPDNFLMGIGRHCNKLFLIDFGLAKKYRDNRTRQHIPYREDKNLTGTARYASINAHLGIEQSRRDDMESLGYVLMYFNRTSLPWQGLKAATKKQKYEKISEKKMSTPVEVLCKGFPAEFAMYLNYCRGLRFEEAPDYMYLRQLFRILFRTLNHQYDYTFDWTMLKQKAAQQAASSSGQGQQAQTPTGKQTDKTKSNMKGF

[3] = molecular target: T1, Ephrin type-A receptor 8 (Homo sapiens, UniProt P29322); assay: Inhibition of recombinant human GST-tagged cytoplasmic EPHA8 expressed in baculovirus expression system by Z'-LYTE assay
T1 sequence (P29322 whole entry): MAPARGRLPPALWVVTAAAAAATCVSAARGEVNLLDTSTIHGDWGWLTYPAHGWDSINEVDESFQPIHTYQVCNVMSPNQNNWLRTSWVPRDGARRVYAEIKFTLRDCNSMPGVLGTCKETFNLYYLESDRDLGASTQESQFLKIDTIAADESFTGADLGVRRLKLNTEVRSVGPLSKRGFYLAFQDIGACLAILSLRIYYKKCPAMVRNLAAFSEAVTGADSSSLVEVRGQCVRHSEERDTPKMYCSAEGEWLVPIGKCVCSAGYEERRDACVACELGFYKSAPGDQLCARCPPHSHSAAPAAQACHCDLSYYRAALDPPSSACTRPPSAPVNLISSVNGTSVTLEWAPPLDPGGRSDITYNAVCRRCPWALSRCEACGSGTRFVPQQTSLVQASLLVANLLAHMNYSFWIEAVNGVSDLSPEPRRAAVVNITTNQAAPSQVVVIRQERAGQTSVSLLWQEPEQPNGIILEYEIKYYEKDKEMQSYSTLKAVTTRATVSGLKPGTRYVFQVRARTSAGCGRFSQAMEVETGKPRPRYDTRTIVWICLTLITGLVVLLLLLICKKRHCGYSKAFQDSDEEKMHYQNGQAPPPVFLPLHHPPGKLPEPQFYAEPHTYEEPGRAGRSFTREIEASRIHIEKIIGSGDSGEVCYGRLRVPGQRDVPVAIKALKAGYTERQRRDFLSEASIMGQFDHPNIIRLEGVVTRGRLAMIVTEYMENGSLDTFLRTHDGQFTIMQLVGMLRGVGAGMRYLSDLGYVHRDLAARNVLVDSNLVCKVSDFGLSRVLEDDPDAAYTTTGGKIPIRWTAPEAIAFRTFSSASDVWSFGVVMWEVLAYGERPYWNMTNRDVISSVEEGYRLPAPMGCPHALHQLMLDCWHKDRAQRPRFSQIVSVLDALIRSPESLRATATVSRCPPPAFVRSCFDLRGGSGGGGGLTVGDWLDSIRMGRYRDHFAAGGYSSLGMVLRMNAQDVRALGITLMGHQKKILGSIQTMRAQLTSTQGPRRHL

[4] = molecular target: T2, Protein kinase C iota type (Homo sapiens, UniProt P41743); assay: Inhibition of full-length recombinant human His-tagged PRKCI expressed in baculovirus expression system by Z'-LYTE assay
T2 sequence (P41743 whole entry): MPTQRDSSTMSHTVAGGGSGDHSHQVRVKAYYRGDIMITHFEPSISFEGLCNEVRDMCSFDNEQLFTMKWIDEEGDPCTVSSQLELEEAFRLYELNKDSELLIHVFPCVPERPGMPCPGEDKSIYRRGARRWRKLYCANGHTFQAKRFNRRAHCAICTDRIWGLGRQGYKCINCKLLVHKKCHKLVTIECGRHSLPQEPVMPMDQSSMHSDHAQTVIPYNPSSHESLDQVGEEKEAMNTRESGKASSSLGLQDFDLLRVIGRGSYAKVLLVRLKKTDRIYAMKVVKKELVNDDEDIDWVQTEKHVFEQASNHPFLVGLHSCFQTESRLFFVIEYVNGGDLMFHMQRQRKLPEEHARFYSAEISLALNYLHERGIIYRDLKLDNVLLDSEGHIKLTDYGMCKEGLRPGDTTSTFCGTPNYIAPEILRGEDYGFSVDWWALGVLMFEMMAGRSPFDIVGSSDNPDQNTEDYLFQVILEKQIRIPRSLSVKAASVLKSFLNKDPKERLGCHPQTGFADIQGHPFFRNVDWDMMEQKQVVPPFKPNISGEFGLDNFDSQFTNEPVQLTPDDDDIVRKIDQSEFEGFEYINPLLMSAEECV

[5] = molecular target: Serine/threonine-protein kinase 26 (Homo sapiens, UniProt Q9P289); assay: Inhibition of full-length recombinant human GST-tagged MST4 expressed in baculovirus expression system by Z'-LYTE assay
[6] = molecular target: Insulin receptor (Homo sapiens, UniProt P06213); assay: Inhibition of recombinant human GST-tagged cytoplasmic INSR (1011 to 1382 residues) expressed in baculovirus expression system by Z'-LYTE assay
Chain of Insulin receptor (P06213 28-758 limits assumed): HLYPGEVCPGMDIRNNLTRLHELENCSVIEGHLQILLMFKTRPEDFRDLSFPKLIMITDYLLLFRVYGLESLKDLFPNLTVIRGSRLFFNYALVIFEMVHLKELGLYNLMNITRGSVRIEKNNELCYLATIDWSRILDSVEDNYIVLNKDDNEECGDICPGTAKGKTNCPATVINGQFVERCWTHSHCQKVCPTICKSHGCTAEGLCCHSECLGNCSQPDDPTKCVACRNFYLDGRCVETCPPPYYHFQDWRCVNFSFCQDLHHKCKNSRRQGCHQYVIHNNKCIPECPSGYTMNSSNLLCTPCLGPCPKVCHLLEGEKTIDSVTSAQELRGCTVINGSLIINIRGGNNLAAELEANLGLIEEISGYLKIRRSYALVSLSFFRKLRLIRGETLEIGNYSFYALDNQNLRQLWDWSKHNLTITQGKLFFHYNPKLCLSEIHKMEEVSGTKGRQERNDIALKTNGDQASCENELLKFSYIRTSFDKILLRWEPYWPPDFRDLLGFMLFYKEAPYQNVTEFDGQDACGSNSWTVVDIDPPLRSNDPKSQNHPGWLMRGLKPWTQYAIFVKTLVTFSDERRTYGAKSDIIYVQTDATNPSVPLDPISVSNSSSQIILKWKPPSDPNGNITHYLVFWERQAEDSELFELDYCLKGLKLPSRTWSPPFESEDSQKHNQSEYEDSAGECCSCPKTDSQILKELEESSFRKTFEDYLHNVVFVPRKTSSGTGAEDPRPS
Chain of Insulin receptor (P06213 763-1382 limits assumed): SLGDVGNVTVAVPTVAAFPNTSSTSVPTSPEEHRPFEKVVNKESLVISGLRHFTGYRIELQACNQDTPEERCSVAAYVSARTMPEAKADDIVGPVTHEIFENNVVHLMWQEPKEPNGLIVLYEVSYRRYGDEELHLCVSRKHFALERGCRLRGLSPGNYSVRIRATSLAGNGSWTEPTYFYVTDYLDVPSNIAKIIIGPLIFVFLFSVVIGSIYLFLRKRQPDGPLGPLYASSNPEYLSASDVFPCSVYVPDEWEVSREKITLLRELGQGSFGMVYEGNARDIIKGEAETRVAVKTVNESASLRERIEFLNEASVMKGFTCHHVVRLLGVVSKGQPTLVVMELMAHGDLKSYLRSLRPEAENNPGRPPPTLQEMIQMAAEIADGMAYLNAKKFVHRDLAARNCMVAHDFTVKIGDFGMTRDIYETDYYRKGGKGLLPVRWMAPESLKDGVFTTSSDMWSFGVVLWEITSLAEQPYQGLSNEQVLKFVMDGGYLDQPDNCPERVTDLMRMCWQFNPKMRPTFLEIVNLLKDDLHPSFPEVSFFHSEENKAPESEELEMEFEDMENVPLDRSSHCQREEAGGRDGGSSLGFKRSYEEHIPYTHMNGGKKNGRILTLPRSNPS

[7] = molecular target: T3, Serine/threonine-protein kinase Nek2 (Homo sapiens, UniProt P51955); assay: Inhibition of full-length recombinant human His-tagged NEK2 expressed in baculovirus expression system by Z'-LYTE assay
T3 sequence (P51955 whole entry): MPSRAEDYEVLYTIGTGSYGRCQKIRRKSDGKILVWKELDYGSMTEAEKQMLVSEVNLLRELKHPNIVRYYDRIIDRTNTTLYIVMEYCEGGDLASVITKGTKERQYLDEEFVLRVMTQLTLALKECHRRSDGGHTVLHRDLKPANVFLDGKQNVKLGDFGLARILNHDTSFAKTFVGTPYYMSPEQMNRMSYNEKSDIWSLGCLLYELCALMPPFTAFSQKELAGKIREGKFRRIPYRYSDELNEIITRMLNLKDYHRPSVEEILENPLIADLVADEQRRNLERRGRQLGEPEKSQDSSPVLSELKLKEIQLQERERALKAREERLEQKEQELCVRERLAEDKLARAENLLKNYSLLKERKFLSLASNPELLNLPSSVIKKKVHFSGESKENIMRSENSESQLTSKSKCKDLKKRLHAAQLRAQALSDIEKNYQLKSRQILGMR

[8] = molecular target: Mitogen-activated protein kinase 14 (Homo sapiens, UniProt Q16539); assay: Inhibition of full-length recombinant human GST-tagged MAPK14 alpha expressed in Escherichia coli by Z'-LYTE assay
Chain of Mitogen-activated protein kinase 14 (Q16539 whole entry): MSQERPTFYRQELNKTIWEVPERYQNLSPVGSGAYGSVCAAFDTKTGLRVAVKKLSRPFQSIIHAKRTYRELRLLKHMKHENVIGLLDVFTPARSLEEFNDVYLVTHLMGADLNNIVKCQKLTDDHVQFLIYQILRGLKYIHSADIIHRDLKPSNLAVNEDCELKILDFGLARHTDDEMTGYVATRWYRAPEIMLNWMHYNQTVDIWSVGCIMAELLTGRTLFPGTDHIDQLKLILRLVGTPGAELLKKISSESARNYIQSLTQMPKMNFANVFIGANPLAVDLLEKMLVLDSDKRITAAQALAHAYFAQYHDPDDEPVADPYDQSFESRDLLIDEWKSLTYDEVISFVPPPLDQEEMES

[9] = molecular target: Glycogen synthase kinase-3 beta (Homo sapiens, UniProt P49841); assay: Inhibition of full-length recombinant human His-tagged GSK3B expressed in baculovirus expression system by Z'-LYTE assay
Chain of Glycogen synthase kinase-3 beta (P49841 whole entry): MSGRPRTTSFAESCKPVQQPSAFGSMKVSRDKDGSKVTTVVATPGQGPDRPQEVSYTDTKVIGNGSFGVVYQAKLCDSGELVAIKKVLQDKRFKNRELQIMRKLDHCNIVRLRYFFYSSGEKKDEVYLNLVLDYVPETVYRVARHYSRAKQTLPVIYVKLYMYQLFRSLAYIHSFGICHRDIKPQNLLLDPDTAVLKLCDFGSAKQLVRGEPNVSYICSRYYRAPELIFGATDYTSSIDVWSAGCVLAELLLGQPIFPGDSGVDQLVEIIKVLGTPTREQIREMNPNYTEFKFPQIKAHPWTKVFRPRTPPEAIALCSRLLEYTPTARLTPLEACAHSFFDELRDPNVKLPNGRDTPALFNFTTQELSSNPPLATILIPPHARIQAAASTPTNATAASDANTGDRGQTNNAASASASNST

[10] = molecular target: Cyclin-dependent kinase 2 (Homo sapiens, UniProt P24941); assay: Inhibition of full-length recombinant human His-tagged CDK2 expressed in baculovirus expression system by Z'-LYTE assay
[11] = molecular target: Vascular endothelial growth factor receptor 2 (Homo sapiens, UniProt P35968); assay: Inhibition of recombinant human His-tagged cytoplasmic KDR expressed in baculovirus expression system by Z'-LYTE assay
Chain of Vascular endothelial growth factor receptor 2 (P35968 whole entry): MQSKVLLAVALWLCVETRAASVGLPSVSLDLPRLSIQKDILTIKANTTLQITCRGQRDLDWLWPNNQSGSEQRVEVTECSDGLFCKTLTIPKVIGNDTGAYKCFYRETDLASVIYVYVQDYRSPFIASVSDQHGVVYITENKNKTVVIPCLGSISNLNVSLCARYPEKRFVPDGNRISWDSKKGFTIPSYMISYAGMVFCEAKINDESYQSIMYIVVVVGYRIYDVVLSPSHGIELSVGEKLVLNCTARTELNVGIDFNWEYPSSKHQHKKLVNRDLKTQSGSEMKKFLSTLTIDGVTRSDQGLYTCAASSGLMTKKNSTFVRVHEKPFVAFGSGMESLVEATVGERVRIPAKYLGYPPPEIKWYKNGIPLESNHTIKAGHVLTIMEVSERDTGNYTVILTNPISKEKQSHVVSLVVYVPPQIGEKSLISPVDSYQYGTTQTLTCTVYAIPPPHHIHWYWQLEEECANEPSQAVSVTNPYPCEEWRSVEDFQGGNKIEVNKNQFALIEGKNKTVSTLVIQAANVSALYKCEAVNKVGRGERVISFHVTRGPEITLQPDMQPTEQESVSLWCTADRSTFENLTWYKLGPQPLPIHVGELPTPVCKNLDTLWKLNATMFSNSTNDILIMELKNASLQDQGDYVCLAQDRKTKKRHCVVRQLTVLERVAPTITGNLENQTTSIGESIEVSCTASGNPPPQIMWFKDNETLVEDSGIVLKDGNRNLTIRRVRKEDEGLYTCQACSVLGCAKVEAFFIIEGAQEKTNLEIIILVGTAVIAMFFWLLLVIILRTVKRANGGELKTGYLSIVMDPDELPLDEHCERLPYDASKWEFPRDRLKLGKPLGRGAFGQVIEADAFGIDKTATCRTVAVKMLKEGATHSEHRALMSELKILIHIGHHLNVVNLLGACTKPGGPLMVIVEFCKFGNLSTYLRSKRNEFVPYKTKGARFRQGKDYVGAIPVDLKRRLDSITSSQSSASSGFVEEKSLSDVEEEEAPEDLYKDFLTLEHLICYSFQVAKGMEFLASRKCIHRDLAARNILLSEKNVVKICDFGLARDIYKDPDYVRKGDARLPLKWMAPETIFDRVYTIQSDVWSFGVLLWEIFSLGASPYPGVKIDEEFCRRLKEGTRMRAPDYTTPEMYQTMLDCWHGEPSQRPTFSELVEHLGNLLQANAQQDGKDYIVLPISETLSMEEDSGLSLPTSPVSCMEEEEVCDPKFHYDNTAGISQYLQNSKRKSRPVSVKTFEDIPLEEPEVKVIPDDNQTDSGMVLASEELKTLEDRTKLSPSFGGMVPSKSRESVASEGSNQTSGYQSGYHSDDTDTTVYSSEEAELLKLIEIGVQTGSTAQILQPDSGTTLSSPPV

[12] = molecular target: Protein-tyrosine kinase 6 (Homo sapiens, UniProt Q13882); assay: Inhibition of full-length recombinant human His-tagged PTK6 expressed in baculovirus expression system by Z'-LYTE assay
[13] = molecular target: Ribosomal protein S6 kinase beta-1 (Homo sapiens, UniProt P23443); assay: Inhibition of full-length recombinant human GST-tagged RPS6KB1 catalytic domain expressed in baculovirus expression system by Z'-LYTE assay
Chain of Ribosomal protein S6 kinase beta-1 (P23443 whole entry, the tested form may be a part): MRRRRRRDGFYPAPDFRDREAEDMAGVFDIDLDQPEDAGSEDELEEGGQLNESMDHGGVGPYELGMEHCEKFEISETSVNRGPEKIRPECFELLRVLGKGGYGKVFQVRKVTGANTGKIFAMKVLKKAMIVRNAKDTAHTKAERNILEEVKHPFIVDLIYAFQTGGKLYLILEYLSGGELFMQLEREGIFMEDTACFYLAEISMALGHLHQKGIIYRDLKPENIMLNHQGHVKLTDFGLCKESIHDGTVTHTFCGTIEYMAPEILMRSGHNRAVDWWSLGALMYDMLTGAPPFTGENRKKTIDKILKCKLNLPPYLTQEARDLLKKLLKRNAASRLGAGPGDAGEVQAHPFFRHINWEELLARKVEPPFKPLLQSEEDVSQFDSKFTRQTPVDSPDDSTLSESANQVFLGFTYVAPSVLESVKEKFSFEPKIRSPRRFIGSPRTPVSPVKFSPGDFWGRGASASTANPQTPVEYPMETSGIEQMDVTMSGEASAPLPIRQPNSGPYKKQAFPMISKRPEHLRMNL

Chain of Glycogen synthase kinase-3 alpha (P49840 whole entry, canonical isoform): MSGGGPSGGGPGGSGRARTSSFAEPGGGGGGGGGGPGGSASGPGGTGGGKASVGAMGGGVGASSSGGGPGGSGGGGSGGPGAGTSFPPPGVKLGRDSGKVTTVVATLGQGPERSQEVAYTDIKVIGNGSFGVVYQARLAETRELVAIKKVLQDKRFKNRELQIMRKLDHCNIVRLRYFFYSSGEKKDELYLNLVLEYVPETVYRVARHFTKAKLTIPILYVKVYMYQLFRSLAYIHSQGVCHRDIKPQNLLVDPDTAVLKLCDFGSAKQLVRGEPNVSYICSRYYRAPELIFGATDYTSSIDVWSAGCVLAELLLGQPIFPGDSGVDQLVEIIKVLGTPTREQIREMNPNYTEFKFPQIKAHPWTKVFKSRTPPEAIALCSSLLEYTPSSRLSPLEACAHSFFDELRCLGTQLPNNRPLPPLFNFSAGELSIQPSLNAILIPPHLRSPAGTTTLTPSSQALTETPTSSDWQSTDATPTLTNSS

## Cn1cc(-c2cnc3c(-c4csc(C(=O)NCC(F)(F)F)c4)cnn3c2)cn1
[1]
  IC50: 130 nM
[2]
  IC50: 630 nM
[3]
  IC50: 29 nM
[4]
  IC50: 6700 nM
[5]
  IC50: 290 nM
[6]
  IC50: > 100000 nM
[7]
  IC50: > 100000 nM
[8]
  IC50: 36000 nM
[9]
  IC50: 84 nM
[10]
  IC50: < 10 nM
[11]
  IC50: 15 nM
[12]
  IC50: > 100000 nM
[13]
  IC50: 110 nM

## Cc1sc(C(=O)N[C@@H]2[C@H](N)CCCC2(F)F)cc1-c1cnn2cc(Cl)cnc12
[1]
  IC50: 110 nM
[2]
  IC50: 18000 nM
[3]
  IC50: 16000 nM
[4]
  IC50: 720 nM
[5]
  IC50: 170 nM
[6]
  IC50: > 100000 nM
[7]
  IC50: 13000 nM
[8]
  IC50: > 100000 nM
[9]
  IC50: 150 nM
[10]
  IC50: 51 nM
[11]
  IC50: 11000 nM
[12]
  IC50: > 100000 nM
[13]
  IC50: 1500 nM

## O=C(NCC(F)(F)F)c1cc(-c2cnn3cc(-c4ccc(OCCN5CCCCC5)cc4)cnc23)cs1
[1]
  IC50: 360 nM
[2]
  IC50: 230 nM
[3]
  IC50: 21 nM
[4]
  IC50: 1500 nM
[5]
  IC50: 1100 nM
[6]
  IC50: 55000 nM
[7]
  IC50: 16000 nM
[8]
  IC50: 1200 nM
[9]
  IC50: 220 nM
[10]
  IC50: 12 nM
[11]
  IC50: < 10 nM
[12]
  IC50: 1700 nM
[13]
  IC50: 88 nM

## Cn1cc(-c2cnc3c(-c4csc(C(=O)N[C@@H]5CCCC[C@@H]5N)c4)cnn3c2)cn1 (racemic)
[1]
  IC50: 42 nM
[2]
  IC50: 2100 nM
[3]
  IC50: 2.9 nM
[4]
  IC50: 37 nM
[5]
  IC50: 6.3 nM
[6]
  IC50: > 10000 nM
[7]
  IC50: 950 nM
[8]
  IC50: 1400 nM
[9]
  IC50: 23 nM
[10]
  IC50: 2.2 nM
[11]
  IC50: 3.5 nM
[12]
  IC50: 390 nM
[13]
  IC50: 8 nM
